Test results taken from patent US9492495B2, “Therapeutic use of agonists or antagonists of bradykinin receptor 1 or 2, for modulation collateral blood vessel growth” (MAX-DELBRUECK-CENTRUM FUER MOLEKULARE MEDIZIN, priority 2010, dated 2016).

Legend:
[1] = tested on: cerebrovascular reactivity (perfusion reserves in the brain); experiment: 3-VO cerebral arteriogenesis model: cerebrovascular reactivity (acetazolamide, laser-doppler); assay type: in vivo; conditions: rat; for cerebrovascular reactivity (CVR), increase in blood flow: three weeks after 3-VO (FIG. 5D)
Protocol: (§1) Pharmacological modulation of arteriogenesis was analyzed using a 3 vessel occlusion (3-VO) model for cerebral arteriogenesis in the rat (Occlusion of both vertebral arteries and one carotid artery). Upon occlusion of three of four blood-supplying arteries to the brain, blood flow is redistributed by the recruitment of collateral pathways such as the posterior cerebral artery to supply the hypoperfusion area with blood. The 3-VO model in the rat has been established since 2003 and is acknowledged as a hypoperfusion model for testing cerebral arteriogenesis (Busch, Buschmann et al. 2003). By using the 3-VO model, relevant therapeutic stimulation of arteriogenesis was shown for instance by the application of GM-CSF (Buschmann, Circulation 2003).
The characterization of arteriogenesis was carried out via measurement of the artery or blood vessel diameter (posterior cerebral artery—PCA) in addition to via a measurement of the cerebrovascular reactivity (perfusion reserves in the brain). Cerebrovascular anatomy was studied after maximal vasodilation by a modification of the postmortem latex perfusion method of Maeda et al (Maeda, Hata et al. 1998).
CVR is reduced through selective inhibition of the bradykinin B1 and B2 signaling pathways. Negative CVR values are based on the Steal phenomenon (Kuwabara, Ichiya et al. 1995). (FIG. 5D). Upon increase of the CO2 partial pressure under normal conditions, vessels in the brain are capable of increasing blood flow to around 20% of the normal blood flow. Directly after the 3-VO experiment no cerebrovascular reactivity is detectable anymore. Blood flow recovers within 3 weeks post 3-VO and the perfusion reserve is restored to around 10%.

[2] = tested on: cerebral arteriogenesis (posterior cerebral artery collateral pathway); experiment: 3-vessel occlusion (3-VO) cerebral arteriogenesis model: collateral growth / posterior cerebral artery diameter; assay type: in vivo, rat; conditions: for arteriogenesis (collateral growth) / cerebral arteriogenesis: rat 3-VO model; for arteriogenesis (collateral growth): antagonist treatment, 3 weeks post 3-VO (FIG. 5); for artery diameter changes (posterior cerebral artery) / collateral arterial growth: rat 3-VO, 3 weeks; for artery diameter changes (posterior cerebral artery): compared with untreated controls; for collateral arterial growth: ipsilateral and contralateral collateral pathways (FIGS. 5B and 5C); for cerebral arteriogenesis: BR1 agonist treatment, 1 week post 3-VO (FIG. 6)
Protocol: as §1, with “Circulation 2003). Either by inhibition or stimulation of the bradykinin receptor signaling pathways, arteriogenesis was determined and physiological parameters of the brain were tested. […] The characterization of arteriogenesis was carried out via measurement of the artery or blood vessel diameter (posterior cerebral artery-PCA) in addition to via a measurement of the cerebrovascular reactivity (perfusion reserves in the brain). Cerebrovascular anatomy was studied after maximal vasodilation by a modification of the postmortem latex perfusion method of Maeda et al (Maeda, Hata et al. 1998).” for “Circulation 2003).”

[3] = biological target: T1, Bradykinin receptor 1 (Homo sapiens, UniProt P46663); conditions: described as moderate; cited from earlier work
T1 sequence (P46663 1-353): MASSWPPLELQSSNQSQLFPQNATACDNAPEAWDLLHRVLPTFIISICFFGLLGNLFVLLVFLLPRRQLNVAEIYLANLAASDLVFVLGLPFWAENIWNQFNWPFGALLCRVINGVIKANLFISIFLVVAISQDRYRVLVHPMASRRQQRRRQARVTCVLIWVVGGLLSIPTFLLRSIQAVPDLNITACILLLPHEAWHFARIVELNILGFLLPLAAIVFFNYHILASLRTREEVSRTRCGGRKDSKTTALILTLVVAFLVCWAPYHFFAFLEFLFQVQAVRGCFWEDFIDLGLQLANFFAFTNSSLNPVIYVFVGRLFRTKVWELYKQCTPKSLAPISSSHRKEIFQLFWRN

[4] = biological target: T1, Bradykinin receptor 1; conditions: described as moderate; cited from earlier work; remark: listed apart in the source
[5] = relative to the natural ligand Lys-desArg-bradykinin; cited from earlier work

Row | Molecule | cerebrovascular reactivity (CVR), increase in blood flow [1] | arteriogenesis (collateral growth) [2] | artery diameter changes (posterior cerebral artery) [2] | collateral arterial growth [2] | affinity relative to the natural ligand Lys-desArg-bradykinin [3] | potency relative to the natural ligand Lys-desArg-bradykinin [4] [fold less] | cerebrovascular reactivity (CVR) ([1]; 1 week post 3-VO (FIG. 6D)) | susceptibility toward proteolysis [5] | cerebral arteriogenesis [2] | cerebral arteriogenesis ([2]; listed as Sar[DPhe8]desArg-bradykinin) | diameter of the posterior cerebral artery (PCA) ([2]; rat, seven days after 3-VO, versus untreated rats after 3-VO (FIG. 6B,C))
1 | (Des-Arg^9, Leu^8)-bradykinin [H1960] | no increase in blood flow is detected | inhibited | increase in diameter to a lesser extent than in the untreated controls | strongly reduced | – | – | – | – | – | – | –
2 | NC(N)=NCCC[C@@H](N)C(=O)N[C@@H](CCCN=C(N)N)C(=O)N1CCC[C@H]1C(=O)N1C[C@H](O)C[C@H]1C(=O)NCC(=O)N[C@@H](Cc1cccs1)C(=O)N[C@@H](CO)C(=O)N1Cc2ccccc2C[C@@H]1C(=O)N1[C@H](C(=O)N[C@@H](CCCN=C(N)N)C(=O)O)C[C@@H]2CCCC[C@@H]21 [HOE-140, icatibant] | no increase in blood flow is detected | inhibited | reduced collateral growth | slightly | – | – | – | – | – | – | –
3 | Sar-[D-Phe8]-des-Arg9-bradykinin [R838] | – | – | – | – | about 11 fold less | ~2 | significantly increased | lower susceptibility toward proteolysis | stimulated therapeutically | therapeutically enhanced | significantly greater
